Test results taken from PubChem BioAssay (NCI).
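Results reflect a 48-hour exposure of cells in 96-well plates to compound at five concentrations. GI50 = concentration required for 50% inhibition of growth. TGI denotes the concentration required for complete inhibition of growth.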

Key:
Experiment in all cases: inhibition of tumour cell growth, NCI panel, 48 h
SF-539 CNS = tested on: SF-539 CNS
HCT-116 colon = tested on: HCT-116 colon
UACC-257 melanoma = tested on: UACC-257 melanoma
LOX IMVI melanoma = tested on: LOX IMVI melanoma
SW-620 colon = tested on: SW-620 colon
SF-295 CNS = tested on: SF-295 CNS
OVCAR-8 ovarian = tested on: OVCAR-8 ovarian
OVCAR-5 ovarian = tested on: OVCAR-5 ovarian
EKVX NSCLC = tested on: EKVX NSCLC
SK-MEL-5 melanoma = tested on: SK-MEL-5 melanoma

SMILES | GI50 (SF-539 CNS) [µM] | TGI (SF-539 CNS) [µM] | GI50 (HCT-116 colon) [µM] | TGI (HCT-116 colon) [µM] | GI50 (UACC-257 melanoma) [µM] | TGI (UACC-257 melanoma) [µM] | GI50 (LOX IMVI melanoma) [µM] | TGI (LOX IMVI melanoma) [µM] | GI50 (SW-620 colon) [µM] | TGI (SW-620 colon) [µM] | GI50 (SF-295 CNS) [µM] | TGI (SF-295 CNS) [µM] | GI50 (OVCAR-8 ovarian) [µM] | TGI (OVCAR-8 ovarian) [µM] | GI50 (OVCAR-5 ovarian) [µM] | TGI (OVCAR-5 ovarian) [µM] | GI50 (EKVX NSCLC) [µM] | TGI (EKVX NSCLC) [µM] | GI50 (SK-MEL-5 melanoma) [µM] | TGI (SK-MEL-5 melanoma) [µM]
COc1ccccc1C1C(C#N)=C(N)OC2=C1C(=O)CCC2 (configuration not stated) | > 100 | > 100 | > 100 | > 100 | > 100 | > 100 | > 100 | > 100 | > 100 | > 100 | > 100 | > 100 | > 100 | > 100 | > 100 | > 100 | > 100 | > 100 | > 100 | > 100
CCCCc1ccc2[n+](c1)C(C(=O)OCC)=PC2 (configuration not stated) | – | > 100 | – | > 100 | – | > 100 | – | – | – | > 100 | – | > 100 | – | > 100 | – | > 100 | – | > 100 | – | > 100
O=C1c2ccccc2-c2ccc(NC(=O)C3CCCCC3C(=O)O)cc21 (configuration not stated) | – | > 100 | – | > 100 | – | > 100 | – | > 100 | – | > 100 | – | > 100 | – | > 100 | – | > 100 | – | > 100 | – | > 100
COc1ccc(C(=O)Cc2cc(OC)ccc2OC)cc1 | – | > 100 | – | > 100 | – | > 100 | – | > 100 | – | > 100 | – | > 100 | – | > 100 | – | > 100 | – | > 100 | – | > 100
Cc1cc(NS(=O)(=O)c2ccc(Nc3c4ccccc4nc4c(C(=O)NCCN(C)C)ccc(Cl)c34)cc2)no1 | – | 14.6 | – | 15.5 | – | – | – | 10.9 | – | 15.5 | – | 16.2 | – | 14 | – | 28.5 | – | 21.2 | – | 10.1
CC(C)=CCN(N=O)c1ncnc2nc[nH]c12 | – | > 100 | – | > 100 | – | > 100 | – | > 100 | – | > 100 | – | > 100 | – | > 100 | – | > 100 | – | > 100 | – | > 100
CCOC(=O)C1C(c2cc(OC)c(O)c(OC)c2)c2cc3c(cc2OC1(C)O)OCO3 (configuration not stated) | – | > 100 | – | > 100 | – | > 100 | – | > 100 | – | > 100 | – | > 100 | – | > 100 | – | – | – | > 100 | – | > 100
Cc1ccc2c(c1)c(=O)c1c(NCCN(C)C)ccc3nnn2c31 | – | 17.8 | – | 15.2 | – | 14.2 | – | 4.6 | – | 18 | – | 15.4 | – | 17.7 | – | 12.4 | – | 23.6 | – | 14.1
